The results in this text go back to US6124305A, “Use of N-(substituted glycyl)-2-cyanopyrrolidines in inhibiting dipeptidyl peptidase-IV” (Novartis AG, priority 1999, dated 2000).

pIC50: −log10 of the molar value. Counter-ions that a name gives are not always drawn.

The target in one assay is T1, DPP-IV (Homo sapiens, UniProt P27487).
T1 construct: Cell extract is prepared from cells solubilized in 10 mM Tris-HCl; host or cells: Caco-2
Put plainly: Caco-2 DPP-IV Assay (inhibition of DPP-IV activity from human colonic carcinoma cell extracts). The format is biochemical. To be noted: human Caco-2 cell extract, H-Alanine-Proline-pNA substrate, pH 7.4, room temperature, 10 minutes.

A further assay has as its target T2, human plasma DPP-IV (Homo sapiens, UniProt P27487).
T2 construct: DPP-IV activity in human and rat plasma; from tissue; host or cells: human plasma
The assay is described as follows: human plasma DPP-IV inhibition assay. The format is biochemical. As to conditions: H-Glycine-Proline-AMC substrate, pH 7.8, room temperature, 20 min.

In another assay the target is T3, rat plasma DPP-IV (Rattus norvegicus, UniProt P14740).
T3 construct: DPP-IV activity in human and rat plasma; from tissue; host or cells: rat plasma
Put plainly: rat plasma DPP-IV inhibition assay. The format is biochemical. As to conditions: H-Glycine-Proline-AMC substrate, pH 7.8, room temperature, 20 min.

Another assay has as its system insulin resistant rats. Put plainly: early insulin response to an oral glucose challenge in insulin resistant rats. The format is in vivo, Male Sprague-Dawley rats. As to conditions: 10 μmol/kg orally in CMC, high fat diet rats, oral glucose 1 g/kg 30 minutes after compound; % increase of the mean of the control animals.

A word on the pIC50: it is the IC50 on a negative log10 scale, so that one unit is a factor of ten.

T1 sequence (P27487 whole entry): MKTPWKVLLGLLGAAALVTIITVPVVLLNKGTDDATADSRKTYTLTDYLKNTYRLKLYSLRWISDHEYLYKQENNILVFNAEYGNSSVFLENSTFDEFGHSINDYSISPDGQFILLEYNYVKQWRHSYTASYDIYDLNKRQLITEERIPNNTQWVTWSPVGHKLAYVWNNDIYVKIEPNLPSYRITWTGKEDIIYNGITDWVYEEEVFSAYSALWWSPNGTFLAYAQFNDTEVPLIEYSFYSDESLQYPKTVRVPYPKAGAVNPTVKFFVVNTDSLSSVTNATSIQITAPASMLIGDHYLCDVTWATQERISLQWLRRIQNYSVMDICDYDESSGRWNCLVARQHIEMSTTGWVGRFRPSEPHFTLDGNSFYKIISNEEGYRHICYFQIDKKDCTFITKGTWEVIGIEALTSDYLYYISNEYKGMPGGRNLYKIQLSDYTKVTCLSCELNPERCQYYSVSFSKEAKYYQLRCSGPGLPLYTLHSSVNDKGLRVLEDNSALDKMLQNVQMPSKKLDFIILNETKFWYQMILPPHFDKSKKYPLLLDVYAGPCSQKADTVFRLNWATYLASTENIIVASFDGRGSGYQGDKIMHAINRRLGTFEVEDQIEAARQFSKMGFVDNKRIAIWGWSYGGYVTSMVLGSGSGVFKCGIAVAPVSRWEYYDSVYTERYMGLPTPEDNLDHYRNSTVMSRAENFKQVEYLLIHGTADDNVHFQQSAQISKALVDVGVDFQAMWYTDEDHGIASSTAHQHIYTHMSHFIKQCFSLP
T2 sequence (P27487 39-766 limits assumed): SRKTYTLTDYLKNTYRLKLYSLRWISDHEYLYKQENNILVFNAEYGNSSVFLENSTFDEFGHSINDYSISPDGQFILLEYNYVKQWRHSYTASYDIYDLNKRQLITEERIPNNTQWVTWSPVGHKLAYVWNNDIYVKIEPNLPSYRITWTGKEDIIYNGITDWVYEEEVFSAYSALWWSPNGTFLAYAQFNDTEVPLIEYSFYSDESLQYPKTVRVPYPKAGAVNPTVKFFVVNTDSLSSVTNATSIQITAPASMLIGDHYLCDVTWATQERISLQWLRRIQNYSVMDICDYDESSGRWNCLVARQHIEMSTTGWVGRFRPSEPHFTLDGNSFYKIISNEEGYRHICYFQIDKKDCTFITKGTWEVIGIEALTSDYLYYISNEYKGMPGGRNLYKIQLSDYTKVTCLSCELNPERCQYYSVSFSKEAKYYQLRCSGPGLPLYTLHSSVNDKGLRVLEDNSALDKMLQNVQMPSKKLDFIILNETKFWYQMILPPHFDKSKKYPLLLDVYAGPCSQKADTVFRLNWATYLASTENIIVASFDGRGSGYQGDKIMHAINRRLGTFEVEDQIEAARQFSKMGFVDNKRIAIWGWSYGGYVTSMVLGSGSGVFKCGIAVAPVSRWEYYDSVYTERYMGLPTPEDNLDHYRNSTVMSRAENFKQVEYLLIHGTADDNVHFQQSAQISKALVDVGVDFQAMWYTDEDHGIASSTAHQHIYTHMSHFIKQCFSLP
T3 sequence (P14740 37-767 limits assumed): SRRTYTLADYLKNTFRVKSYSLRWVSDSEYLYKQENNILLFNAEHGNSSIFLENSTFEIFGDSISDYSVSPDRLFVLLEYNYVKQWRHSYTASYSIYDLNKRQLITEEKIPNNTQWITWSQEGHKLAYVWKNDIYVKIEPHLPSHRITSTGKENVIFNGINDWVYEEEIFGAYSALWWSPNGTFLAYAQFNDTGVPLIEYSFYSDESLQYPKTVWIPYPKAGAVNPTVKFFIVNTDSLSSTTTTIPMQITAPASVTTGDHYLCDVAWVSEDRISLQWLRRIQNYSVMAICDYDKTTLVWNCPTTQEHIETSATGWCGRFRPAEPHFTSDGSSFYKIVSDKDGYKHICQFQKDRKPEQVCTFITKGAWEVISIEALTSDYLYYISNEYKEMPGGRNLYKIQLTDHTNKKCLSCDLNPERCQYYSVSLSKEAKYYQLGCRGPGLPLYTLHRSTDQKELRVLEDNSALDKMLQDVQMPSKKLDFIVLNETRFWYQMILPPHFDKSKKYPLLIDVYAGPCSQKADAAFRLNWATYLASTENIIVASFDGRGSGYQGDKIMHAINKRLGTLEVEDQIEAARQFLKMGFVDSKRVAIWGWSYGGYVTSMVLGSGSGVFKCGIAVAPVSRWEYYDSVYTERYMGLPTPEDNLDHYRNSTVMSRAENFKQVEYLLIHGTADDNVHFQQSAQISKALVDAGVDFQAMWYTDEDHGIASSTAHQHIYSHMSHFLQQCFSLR
Description for rat plasma DPP-IV: Briefly, five μl of plasma are added to 96-well flat-bottom microtiter plates (Falcon), followed by the addition of 5 μl of 80 mM MgCl2 in incubation buffer (25 mM HEPES, 140 mM NaCl, 1% RIA-grade BSA, pH 7.8). After a 5 min. incubation at room temperature, the reaction is initiated by the addition of 10 μl of incubation buffer containing 0.1 mM substrate (H-Glycine-Proline-AMC; AMC is 7-amino-4-methylcoumarin). The plates are covered with aluminum foil (or kept in the dark) and incubated at room temperature for 20 min. […] A fluorescence-concentration curve of free AMC is generated using 0-50 μM solutions of AMC in assay buffer. The curve generated is linear and is used for interpolation of substrate consumption (catalytic activity in nmoles substrate cleaved/min). As with the previous assay, the potency of the test compounds as DPP-IV inhibitors, expressed as IC50, is calculated from 8-point, dose-response curves using a 4 parameter logistic function.

Regarding `COc1ccc(CCNCC(=O)N2CCC[C@H]2C#N)cc1` [Ex. 18, Pyrrolidine, 1-[[2-(4-methoxyphenyl)ethyl]amino]acetyl-2-cyano-, (S)--, monohydrochloride], the pIC50 at DPP-IV was 7.00; at human plasma DPP-IV it was 6.80; at rat plasma DPP-IV, 7.15.

Consider `COc1cc(CCNCC(=O)N2CCC[C@H]2C#N)cc(OC)c1` [Ex. 46, Pyrrolidine, 1-[2-[(3,5-dimethoxyphenyl)ethyl]amino]acetyl-2-cyano-, (S)--, monohydrochloride], for which the pIC50 is 6.82 on DPP-IV, 6.55 on human plasma DPP-IV and 7.22 against rat plasma DPP-IV.

As for `N#C[C@@H]1CCCN1C(=O)CNC1CCN(Cc2ccccc2)CC1` [Ex. 66, Pyrrolidine, 1-[(1-phenylmethyl-4-piperidinyl)amino]acetyl-2-cyano-, (S)--, monohydrochloride], the figures for the pIC50 against DPP-IV, on human plasma DPP-IV and at rat plasma DPP-IV were 7.22, 6.89 and 7.40, respectively.

Regarding `COc1cccc(CCNCC(=O)N2CCC[C@H]2C#N)c1` [Ex. 19, Pyrrolidine, 1-[[2-(3-methoxyphenyl)ethyl]amino]acetyl-2-cyano-, (S)--, monohydrochloride], the pIC50 was 6.92 on DPP-IV, 6.74 at human plasma DPP-IV and 7.30 on rat plasma DPP-IV.

Turning to `COc1cc(Br)c(CCNCC(=O)N2CCC[C@H]2C#N)cc1OC` [Ex. 11, 1-[2-(2-bromo-4,5-dimethoxyphenyl)ethylamino]acetyl-2-cyano-(S)-pyrrolidine], on DPP-IV, the pIC50 is 6.67.

With `N#C[C@@H]1CCCN1C(=O)CNCCc1ccccc1F` [Ex. 42, Pyrrolidine, 1-[[2-(2-fluorophenyl)ethyl]amino]acetyl-2-cyano-, (S)--, monohydrochloride], the pIC50 was 6.62 on DPP-IV, 6.85 against human plasma DPP-IV and 6.74 against rat plasma DPP-IV.

As for `N#C[C@@H]1CCCN1C(=O)CNCCNc1ccc([N+](=O)[O-])cn1` [Ex. 8, 1-[2-[(5-nitropyridin-2-yl)amino]ethylamino]acetyl-2-cyano-(S)pyrrolidine], the “Increase of Insulin Response at 10 μmol/kg” value (“Increase of Insulin Response” below) in the assay on insulin resistant rats turned out to be 144%.

Regarding `N#Cc1ccc(NCCNCC(=O)N2CCC[C@H]2C#N)nc1` [Ex. 3, 1-[2-[(5-cyanopyridin-2-yl)amino]ethylamino]acetyl-2-cyano-(S)-pyrrolidine dihydrochloride], the “Increase of Insulin Response” value in the assay with insulin resistant rats is 66%.

At DPP-IV, `N#C[C@@H]1CCCN1C(=O)CNCCNc1nccc(Cl)n1` [Ex. 7A, 1-[2-[(4-chloropyrimidin-2-yl)amino]ethylamino]acetyl-2-cyano-(S)-pyrrolidine] gave a pIC50 of 6.78.

On to `COc1ccccc1CCNCC(=O)N1CCC[C@H]1C#N` [Ex. 36, Pyrrolidine, 1-[[2-(2-methoxyphenyl)ethyl]amino]acetyl-2-cyano-, (S)--, monohydrochloride], for which the results for the pIC50 against DPP-IV, against human plasma DPP-IV and on rat plasma DPP-IV were 6.80, 6.77 and 7.10, respectively.

For `N#C[C@@H]1CCCN1C(=O)CN[C@@H]1CCN(Cc2ccccc2)C1` [Ex. 17, Pyrrolidine, 1-[(1-phenylmethyl-3-pyrrolidinyl)amino]acetyl-2-cyano-, (S)--(R)--, dihydrochloride], the values for the pIC50 against DPP-IV, on human plasma DPP-IV and on rat plasma DPP-IV were 7.22, 6.60 and 6.92, respectively.

Take `N#C[C@@H]1CCCN1C(=O)CNCCNc1ncc(Cl)cc1Cl` [Ex. 9C, 1-[2-[(3,5-dichloropyridin-2-yl)amino]ethylamino]acetyl-2-cyano-(S)-pyrrolidine]: the negative logarithm of the IC50 (pIC50) against DPP-IV was 6.53.

In turn, `N#C[C@@H]1CCCN1C(=O)CNCCNc1ncccc1Cl` [Ex. 7B, 1-[2-[(3-chloropyridin-2-yl)amino]ethylamino]acetyl-2-cyano-(S)-pyrrolidine] gave a pIC50 against DPP-IV of 6.76.

For the molecule `CCOc1ccc(CCNCC(=O)N2CCC[C@H]2C#N)cc1` [Ex. 16, Pyrrolidine, 1-[[2-(4-ethoxyphenyl)ethyl]amino]acetyl-2-cyano-, (S)--, monohydrochloride], the pIC50 on DPP-IV is 6.89; against human plasma DPP-IV, 6.77; at rat plasma DPP-IV it was 7.22.

For the molecule `CC1(C)C2CCC(CNCC(=O)N3CCC[C@H]3C#N)C1C2` (single isomer, unassigned) [Ex. 25, Pyrrolidine, 1-[[(6,6-dimethylbicyclo[3.1.1]hept-2-yl)methyl]amino]acetyl-2-cyano-[1S[1α,2α(S*),5α]]-(S)--, monohydrochloride], the figures for the pIC50 on DPP-IV, at human plasma DPP-IV and against rat plasma DPP-IV were 6.85, 6.96 and 6.85, respectively.

Regarding `N#C[C@@H]1CCCN1C(=O)CNCCc1ccccn1` [Ex. 30, Pyrrolidine, 1-[[2-(2-pyridinyl)ethyl]amino]acetyl-2-cyano-, (S)--, dihydrochloride], the pIC50 at DPP-IV is 6.19; on human plasma DPP-IV, 7.10; at rat plasma DPP-IV, 7.05.

Consider `C[C@H](NCC(=O)N1CCC[C@H]1C#N)[C@H](O)c1ccccc1` [Ex. 41, Pyrrolidine, 1-[(2-hydroxy-2-phenylethyl)amino]acetyl-2-cyano-[2S-[1R*,2S*]-monohydrochloride], for which the values for the negative logarithm of the IC50 (pIC50) at DPP-IV, at human plasma DPP-IV and at rat plasma DPP-IV were 6.85, 7.00 and 7.30, respectively.

Regarding `N#C[C@@H]1CCCN1C(=O)CNCCc1ccc(Cl)cc1Cl` [Ex. 39, Pyrrolidine, 1-[[2-(2,4-dichlorophenyl)ethyl]amino]acetyl-2-cyano-, (S), monohydrochloride], the pIC50 against DPP-IV is 6.42; at human plasma DPP-IV, 6.66; against rat plasma DPP-IV, 6.70.

For `N#C[C@@H]1CCCN1C(=O)CNCc1ccccc1Sc1ccccc1CO` [Ex. 35, Pyrrolidine, 1-[[[2-[(2-hydroxymethyl)phenyl]thio]phenylmethyl]amino]acetyl-2-cyano-,(S)--, monohydrochloride], the values for the pIC50 at DPP-IV, against human plasma DPP-IV and against rat plasma DPP-IV were 6.89, 5.96 and 6.47, respectively.

`N#C[C@@H]1CCCN1C(=O)CNCCC1=CCCCC1` [Ex. 27, Pyrrolidine, 1-[[2-(1-cyclohexenyl-1-yl)ethyl]amino]acetyl-2-cyano-, (S)--, monohydrochloride]: the pIC50 against DPP-IV was 6.51; at human plasma DPP-IV it was 6.82; against rat plasma DPP-IV, 6.80.

With `N#C[C@@H]1CCCN1C(=O)CNCCCN1CCCC1=O` [Ex. 14, 1-[3-(2-oxo-pyrrolidin-1-yl)propylamino]acetyl-2-cyano-(S)-pyrrolidine monohydrochloride], the values for the pIC50 at DPP-IV, against human plasma DPP-IV and against rat plasma DPP-IV were 6.96, 7.02 and 7.62, respectively.

Turning to `N#C[C@@H]1CCCN1C(=O)CNCCNc1nccc(C(F)(F)F)n1` [Ex. 7C], the pIC50 against DPP-IV was 6.54.

As to `N#C[C@@H]1CCCN1C(=O)CNCCc1ccccc1Cl` [Ex. 7D, 1-[(2-chlorophenyl)ethylamino]acetyl-2-cyano-(S)-pyrrolidine], the pIC50 on DPP-IV was 6.42.

Take `CC(C)OCCCNCC(=O)N1CCC[C@H]1C#N` [Ex. 12, 1-[3-(isopropoxy)propylamino]acetyl-2-cyano-(S)-pyrrolidine monohydrochloride]: the pIC50 was 6.55 on DPP-IV, 7.02 against human plasma DPP-IV and 7.42 at rat plasma DPP-IV. Moreover, the “Increase of Insulin Response” value in the assay on insulin resistant rats was determined as 59%.

For the molecule `COc1ccc(CCNCC(=O)N2CCC[C@H]2C#N)cc1OC` [Ex. 23, Pyrrolidine, 1-[2-[(3,4-dimethoxyphenyl)ethyl]amino]acetyl-2-cyano-, (S)--, monohydrochloride], the pIC50 was 7.30 at DPP-IV, 7.40 against human plasma DPP-IV and 7.40 on rat plasma DPP-IV.

`N#C[C@@H]1CCCN1C(=O)CNCCNc1ncc(C(F)(F)F)cc1Cl` [Ex. 9A, 1-[2-[(3-chloro-5-trifluoromethylpyridin-2-yl)amino]ethylamino]acetyl-2-cyano-(S)-pyrrolidine] gave a pIC50 on DPP-IV of 6.00.

As for `CN(CCCNCC(=O)N1CCC[C@H]1C#N)c1ccccc1` [Ex. 22, Pyrrolidine, 1-[[3-[(phenyl)(methyl)amino]propyl]amino]acetyl-2-cyano-, (S)--, dihydrochloride], the pIC50 is 6.82 against DPP-IV, 6.77 against human plasma DPP-IV and 7.22 against rat plasma DPP-IV.

Regarding `COc1ccc(OC)c(CCNCC(=O)N2CCC[C@H]2C#N)c1` [Ex. 26, Pyrrolidine, 1-[[2-(2,5-dimethoxyphenyl)ethyl]amino]acetyl-2-cyano-. (S)--, monohydrochloride], the pIC50 against DPP-IV is 6.77; against human plasma DPP-IV, 6.62; against rat plasma DPP-IV, 7.15.

As for `N#C[C@@H]1CCCN1C(=O)CNC1(CO)CCCC1` [Ex. 5, 1-[(1-hydroxymethylcyclopent-1-yl)amino]acetyl-2-cyano-(S)-pyrrolidine], the “Increase of Insulin Response” value in the assay with insulin resistant rats is recorded as 108%.
